Test results: patent US20260297108A1, “NOVEL INHIBITORS OF PIKFYVE AND METHODS USING SAME” (priority 2023, published 2026)
Like-named read-outs stand apart in the source and are kept apart here.

Key:
MDCK cells = details: dog
PIKFYVE [1] = target: T1, PIKFYVE (Homo sapiens, UniProt Q9Y2I7); experiment: KINOMEscan Kinase Assay (PIKFYVE inhibitory activity)
[2] = tested on: IL-12 and IL-23 synthesis; details: background; cited from earlier work
PIKFYVE [3] = target: T1, PIKFYVE; design: T7 phage display fusion, or alternatively DNA tag for qPCR (general KINOMEscan description); purchased Eurofins; details: background; cited from earlier work
enveloped viruses = details: background; cited from earlier work
Marburg = assay type: cell-based, Marburg virus (Angola strain)
SARS-CoV2 (Delta) = experiment: SARS-COV-2 IFA, inhibition of CPE (Delta strain B.1.617); assay type: cell-based, SARS-COV-2 Delta strain B.1.617; details: CC50 divided by EC50
Influenza A = experiment: Influenza A, inhibition of CPE; assay type: cell-based, influenza A strain California/07/09 (H1N1) pdm09; details: CC50 divided by EC50
in vitro [4] = details: monkey, vero cells
SARS-CoV2 = experiment: SARS-COV-2 IFA, inhibition of CPE (strain USA-WA1/2020); assay type: cell-based; details: CC50 divided by EC50
in vitro [5] = details: dog, mdck
[6] = read-out: PIKfyve Activity (PIKfyve % inhibition)
[7] = read-out: PIKfyve Activity (% inhibition)

T1 sequence (Q9Y2I7 whole entry): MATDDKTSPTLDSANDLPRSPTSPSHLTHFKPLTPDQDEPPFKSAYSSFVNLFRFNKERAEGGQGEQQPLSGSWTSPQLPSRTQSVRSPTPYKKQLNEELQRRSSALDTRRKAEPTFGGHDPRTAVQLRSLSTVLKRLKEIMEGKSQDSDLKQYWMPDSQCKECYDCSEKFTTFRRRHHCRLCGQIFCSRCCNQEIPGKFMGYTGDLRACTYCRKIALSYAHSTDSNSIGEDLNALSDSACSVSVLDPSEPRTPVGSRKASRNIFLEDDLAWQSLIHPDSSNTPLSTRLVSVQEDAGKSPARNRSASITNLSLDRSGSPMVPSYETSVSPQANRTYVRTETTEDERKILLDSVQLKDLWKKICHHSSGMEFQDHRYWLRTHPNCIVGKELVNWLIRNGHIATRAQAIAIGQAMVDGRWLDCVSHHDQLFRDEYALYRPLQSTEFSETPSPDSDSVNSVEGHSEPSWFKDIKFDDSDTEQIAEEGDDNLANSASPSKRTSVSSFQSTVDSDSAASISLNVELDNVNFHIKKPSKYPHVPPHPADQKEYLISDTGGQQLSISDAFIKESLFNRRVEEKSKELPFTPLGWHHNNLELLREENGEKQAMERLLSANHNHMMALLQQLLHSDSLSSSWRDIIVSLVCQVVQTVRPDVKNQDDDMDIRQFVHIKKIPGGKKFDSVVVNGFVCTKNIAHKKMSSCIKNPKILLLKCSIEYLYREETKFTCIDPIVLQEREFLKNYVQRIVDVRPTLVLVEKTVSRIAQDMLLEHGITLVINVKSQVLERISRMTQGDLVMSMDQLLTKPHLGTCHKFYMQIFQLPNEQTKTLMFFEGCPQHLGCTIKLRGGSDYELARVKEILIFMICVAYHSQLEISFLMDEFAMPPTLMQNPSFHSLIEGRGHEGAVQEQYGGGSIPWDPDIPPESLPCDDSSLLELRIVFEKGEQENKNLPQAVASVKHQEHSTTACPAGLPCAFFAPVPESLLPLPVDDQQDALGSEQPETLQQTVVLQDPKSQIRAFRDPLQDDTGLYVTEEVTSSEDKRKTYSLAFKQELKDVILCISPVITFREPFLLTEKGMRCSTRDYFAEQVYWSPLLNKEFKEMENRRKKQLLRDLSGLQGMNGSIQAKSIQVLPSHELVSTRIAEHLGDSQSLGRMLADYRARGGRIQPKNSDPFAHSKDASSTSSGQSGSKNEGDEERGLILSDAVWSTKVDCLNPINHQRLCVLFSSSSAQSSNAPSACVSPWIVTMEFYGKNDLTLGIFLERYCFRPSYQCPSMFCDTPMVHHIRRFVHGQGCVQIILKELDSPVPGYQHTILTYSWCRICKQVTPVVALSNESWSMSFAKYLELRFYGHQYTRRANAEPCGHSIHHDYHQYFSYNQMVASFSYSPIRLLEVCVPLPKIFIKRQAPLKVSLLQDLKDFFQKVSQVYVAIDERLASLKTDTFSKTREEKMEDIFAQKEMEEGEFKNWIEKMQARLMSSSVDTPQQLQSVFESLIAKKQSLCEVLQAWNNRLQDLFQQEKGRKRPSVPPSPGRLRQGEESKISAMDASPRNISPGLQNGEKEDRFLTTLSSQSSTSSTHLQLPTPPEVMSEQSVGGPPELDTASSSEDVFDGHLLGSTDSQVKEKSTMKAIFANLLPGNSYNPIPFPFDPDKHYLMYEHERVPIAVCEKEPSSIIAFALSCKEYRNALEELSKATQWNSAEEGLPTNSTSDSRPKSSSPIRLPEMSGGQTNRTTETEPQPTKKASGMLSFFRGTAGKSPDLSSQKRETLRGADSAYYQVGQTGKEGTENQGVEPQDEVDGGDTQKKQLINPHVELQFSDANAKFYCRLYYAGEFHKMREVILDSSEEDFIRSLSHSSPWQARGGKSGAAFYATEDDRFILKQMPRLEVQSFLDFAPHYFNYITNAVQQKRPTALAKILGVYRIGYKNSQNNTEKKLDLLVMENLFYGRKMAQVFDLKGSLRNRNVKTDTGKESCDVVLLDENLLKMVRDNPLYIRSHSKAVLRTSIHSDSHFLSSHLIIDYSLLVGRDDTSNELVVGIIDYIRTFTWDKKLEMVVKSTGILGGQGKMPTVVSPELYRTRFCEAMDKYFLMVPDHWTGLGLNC

Compound: NC(=O)c1ncn([C@@H]2O[C@H](CO)[C@@H](O)[C@H]2O)n1 [ribavirin, reference compound]
- CC50 (MDCK cells): > 1000 µM

Compound: Cc1cccc(-c2ccn(-c3cc(N4CCOCC4)c4nc(C(=O)NC5COC5)[nH]c4n3)n2)c1 [Ex. 298]
- inhibition at 0.001 µM (PIKFYVE [1]; [6]): 52 to 100%

Compound: Cc1cccc(-c2nc(-c3nc(N4CCOCC4)c4sc(CN5CCN(S(C)(=O)=O)CC5)cc4n3)co2)c1 [Ex. 241]
- inhibition at 0.003 µM (PIKFYVE [1]; [7]): 0%

Compound: Cc1cccc(-c2ccn(-c3cc(N4CCOCC4)c4sc(C(=O)N5CCC(N6CC(F)C6)C5)cc4n3)n2)c1 (centres unmarked) [Ex. 238]
- inhibition at 0.001 µM (PIKFYVE [1]; [6]): 52 to 100%

Compound: Cc1cccc(-c2ccn(-c3nc(N4CCOCC4)c4nc(C(=O)N5CCN(S(C)(=O)=O)CC5)n(C)c4n3)n2)c1 [Ex. 287]
- inhibition at 0.001 µM (PIKFYVE [1]; [6]): 52 to 100%

Compound: Cc1cccc(-c2ccn(-c3cc(N4CCOCC4)c4sc(NC(=O)C5CCCN(C)C5)cc4n3)n2)c1 (centres unmarked) [Ex. 272]
- inhibition at 0.001 µM (PIKFYVE [1]; [7]): 44%

Compound: Cc1cccc(-c2ccn(-c3nc(N4CCOCC4)c4nc(C(=O)NC5CC5)[nH]c4n3)n2)c1 [Ex. 274]
- inhibition at 0.001 µM (PIKFYVE [1]; [6]): 52 to 100%

Compound: Cc1cccc(-c2ccn(-c3cc(N4CCOCC4)c4nc(COCc5ccccc5)[nH]c4n3)n2)c1 [Ex. 316]
- inhibition at 0.001 µM (PIKFYVE [1]; [6]): 52 to 100%

Compound: Cc1cccc(-c2ccn(-c3cc(N4CCOCC4)c4sc(NC(=O)C5CCN(C)CC5)cc4n3)n2)c1 [Ex. 235]
- inhibition at 0.001 µM (PIKFYVE [1]; [6]): 52 to 100%

Compound: Cc1cccc(-c2ccn(-c3nc4[nH]c(C(=O)NC5COC5)nc4c(N4CCOCC4)c3F)n2)c1 [Ex. 310]
- inhibition at 0.003 µM (PIKFYVE [1]; [7]): 0%

Compound: Cc1cccc(-c2ccn(-c3nc(N4CCOCC4)c4nc(CN5CCC(N(C)C)C(F)C5)n(C)c4n3)n2)c1 (centres unmarked) [Ex. 171, 3-fluoro-N,N-dimethyl-1-((9-methyl-6-morpholino-2-(3-(m-tolyl)-1H-pyrazol-1-yl)-9H-purin-8-yl)methyl)piperidin-4-amine]
- inhibition at 0.003 µM (PIKFYVE [1]; [7]): 22%

Compound: Brc1ccn(-c2cc(N3CCOCC3)c3sc(CN4CCOCC4)cc3n2)n1 [Ex. 173, 4-(5-(3-Bromo-1H-pyrazol-1-yl)-2-(morpholinomethyl)thieno[3,2-b]pyridin-7-yl)morpholine]
- inhibition at 0.001 µM (PIKFYVE [1]; [7]): 18%

Compound: Cc1cccc(-c2ccn(-c3cc(N4CCOCC4)c4sc(C(=O)N5CCN(C)CC5)cc4n3)n2)c1 [Ex. 217, (4-Methylpiperazin-1-yl) (7-morpholino-5-(3-(m-tolyl)-1H-pyrazol-1-yl)thieno[3,2-b]pyridin-2-yl)methanone]
- inhibition at 0.001 µM (PIKFYVE [1]; [6]): 52 to 100%

Compound: CC(=O)N1CCN(Cc2cc3nc(-n4ccc(-c5cccc(C)c5)n4)cc(N4CCOCC4)c3s2)CC1 [Ex. 295]
- inhibition at 0.001 µM (PIKFYVE [1]; [6]): 52 to 100%

Compound: Cc1cccc(-c2ccn(-c3nc(N4CCOCC4)c4nc(C(=O)NC5COC5)[nH]c4n3)n2)c1 [Ex. 275]
- inhibition at 0.001 µM (PIKFYVE [1]; [7]): 40%

Compound: Cc1cccc(-c2ccn(-c3cc(N4CCOCC4)c4sc(NC(=O)C5CCN(C)C5)cc4n3)n2)c1 (centres unmarked) [Ex. 271]
- inhibition at 0.001 µM (PIKFYVE [1]; [6]): 52 to 100%

Compound: Cc1cccc(-c2ccn(-c3nc(N4CCOCC4)c4nc(CO)[nH]c4n3)n2)c1 [Ex. 314]
- inhibition at 0.001 µM (PIKFYVE [1]; [7]): 40%

Compound: Cc1cccc(-c2ccn(-c3cc(N4CCOCC4)c4sc(C(=O)N5CCC(N6CCC6)C(F)C5)cc4n3)n2)c1 (centres unmarked) [Ex. 236]
- inhibition at 0.001 µM (PIKFYVE [1]; [6]): 52 to 100%

Compound: Cc1cccc(/C=N/Nc2cc(N3CCOCC3)nc(OCCc3ccccn3)n2)c1 [Apilimod]
- inhibitor of IL-12 and IL-23 synthesis [2]: inhibitor of IL-12 and IL-23 synthesis
- PIKFYVE inhibitory activity (PIKFYVE [3]): potent PIKFYVE inhibitory activity
- prevention of infection by enveloped viruses (enveloped viruses): prevent infection by some of these enveloped viruses

Compound: Cc1cccc(-c2ccn(-c3nc4[nH]c(C(=O)NC5CC5)nc4c(N4CCOCC4)c3F)n2)c1 [Ex. 307]
- inhibition at 0.003 µM (PIKFYVE [1]; [7]): 0%

Compound: CC(=O)c1cccc(-c2ccn(-c3cc(N4CCOCC4)c4sc(CN5CCOCC5)cc4n3)n2)c1 [Ex. 184, 1-(3-(1-(7-Morpholino-2-(morpholinomethyl)thieno[3,2-b]pyridin-5-yl)-1H-pyrazol-3-yl)phenyl) ethan-1-one]
- inhibition at 0.005 µM (PIKFYVE [1]; [7]): 10%

Compound: Cc1cccc(-c2ccn(-c3cc(N4CCOCC4)c4sc(CN5CCOCC5)c(C)c4n3)n2)c1 [Ex. 167, 4-(3-Methyl-2-(morpholinomethyl)-5-(3-(m-tolyl)-1H-pyrazol-1-yl)thieno[3,2-b]pyridin-7-yl)morpholine]
- inhibition at 0.001 µM (PIKFYVE [1]; [7]): 7%

Compound: Cc1cccc(-c2ccn(-c3nc(N4CCOCC4)c4sc(CN5CCN(S(C)(=O)=O)CC5)cc4n3)n2)c1 [Ex. 2, 4-(6-((4-(methylsulfonyl)piperazin-1-yl)methyl)-2-(3-(m-tolyl)-1H-pyrazol-1-yl)thieno[3,2-d]pyrimidin-4-yl)morpholine]
- Selectivity Index (Marburg): >15000
- Selectivity Index (SARS-CoV2 (Delta)): >1000
- Selectivity Index (Influenza A): >150
- CC50 (MDCK cells): > 150 µM
- CC50 at 24 h (in vitro [4]): > 3 µM
- Selectivity Index (SARS-CoV2): >150
- CC50 (in vitro [5]): > 3 µM

Compound: Cc1cccc(-c2ccn(-c3cc(N4CCOCC4)c4nc(CN5CCN(S(=O)(=O)C6CC6)CC5)[nH]c4n3)n2)c1 [Ex. 280]
- inhibition at 0.001 µM (PIKFYVE [1]; [7]): 46%

Compound: Cc1cccc(-c2ccn(-c3cc(N4CCOCC4)c4sc(C(=O)NC5CCCN(C)C5)cc4n3)n2)c1 (centres unmarked) [Ex. 187, N-(1-Methylpiperidin-3-yl)-7-morpholino-5-(3-(m-tolyl)-1H-pyrazol-1-yl)thieno[3,2-b]pyridine-2-carboxamide]
- inhibition at 0.001 µM (PIKFYVE [1]; [6]): 52 to 100%

Compound: Cc1cccc(-c2nc(-c3nc(N4CCOCC4)c4sc(CN5CCN(S(C)(=O)=O)CC5)cc4n3)cs2)c1 [Ex. 243]
- inhibition at 0.001 µM (PIKFYVE [1]; [6]): 52 to 100%

Compound: Cc1cccc(-c2ccn(-c3cc(N4CCOCC4)c4nc(CN5CCC(N(C)C)C(F)C5)n(C)c4n3)n2)c1 (centres unmarked) [Ex. 82, 3-fluoro-N,N-dimethyl-1-((3-methyl-7-morpholino-5-(3-(m-tolyl)-1H-pyrazol-1-yl)-3H-imidazo[4,5-b]pyridin-2-yl)methyl)piperidin-4-amine]
- inhibition at 0.001 µM (PIKFYVE [1]; [6]): 52 to 100%

Compound: Cc1cccc(-c2ccn(-c3cc(N4CCOCC4)c4nc(CN5C6CC5CN(S(C)(=O)=O)C6)[nH]c4n3)n2)c1 [Ex. 285]
- inhibition at 0.001 µM (PIKFYVE [1]; [6]): 52 to 100%

Compound: Cc1cccc(-c2ccn(-c3cc(N4CCOCC4)c4nc(C(=O)N5CCC(N6CCC6)C(F)C5)[nH]c4n3)n2)c1 (centres unmarked) [Ex. 89]
- inhibition at 0.001 µM (PIKFYVE [1]; [6]): 52 to 100%

Compound: Cc1cccc(-c2ccn(-c3cc(N4CCOCC4)c4sc(C(=O)N5CCN(S(C)(=O)=O)CC5)cc4n3)n2)c1 [Ex. 240]
- inhibition at 0.001 µM (PIKFYVE [1]; [6]): 52 to 100%

Compound: Cc1cccc(-c2ccn(-c3cc(N4CCOCC4)c4nc(CO)[nH]c4n3)n2)c1 [Ex. 317]
- inhibition at 0.001 µM (PIKFYVE [1]; [6]): 52 to 100%

Compound: Cc1cccc(-c2ccn(-c3cc(N4CCOCC4)c4nc(CN5CCC(C(N)=O)CC5)[nH]c4n3)n2)c1 [Ex. 303]
- inhibition at 0.001 µM (PIKFYVE [1]; [6]): 52 to 100%

Compound: Cc1cccc(-c2ccn(-c3cc(N4CCOCC4)c4sc(C(=O)N5CCC(N6CC(F)C6)CC5)cc4n3)n2)c1 [Ex. 237]
- inhibition at 0.001 µM (PIKFYVE [1]; [6]): 52 to 100%
